What was measured:
[1] = Kinetic study of the reaction between TTS and H2S (UV-Vis, 380 nm); format: physicochemical; design: unit not given here; conditions: TTS 50 μM, Na2S 5 mM, PBS pH 7.4, room temperature; average of 3 trials
Experimental: FIG. 1A depicts UV-Vis absorbance spectra changes of the reaction between TTS (100 μM) and H2S (200 μM) over 1 min intervals. FIG. 1B depicts representative time-dependent [TTS] changes based on UV-Vis absorption changes at 380 nm of the reaction between TTS (50 μM) and Na2S (5 mM). FIG. 1C depicts representative time-dependent −ln([TTS]/[TTS]0) changes based on UV-Vis absorption changes at 380 nm of the reaction between TTS (50 μM) and Na2S (5 mM). […] See Kolb, H. C. et al., Click chemistry: diverse chemical function from a few good reactions. Angew. Chem. Int. Ed. 2001, 40, 2004-2021.
Kinetic study of the reaction between TTS and H2S: TTS (10 μL, 10 mM in DMSO solution, final concentration=50 μM) and Na2S (20 μL, 500 mM in MilliQ H2O, final concentration=5 mM), reacted in PBS buffer (50 mM, pH=7.4) (2 mL) at room temperature. The kinetics were detected by UV-Vis absorbance spectrum (λ=380 nm) based on the decrease of TTS. This reaction can be seen as a pseudo-first order reaction; the second-order k constant (k) was calculated by: […]
The final k reported above was calculated by taking the average of the k values from 3 trials. • To determine [TTS] at each time point: […]

[2] = Measurement of H2S2 formation from JK-1 with TTS (SSP4); conditions: TTS 200 μM + JK-1 400 μM, 30 min incubation, pH 7.4
Experimental: Measurement of H2S2 formation from JK-1 with TTS: JK-1 (1.1 mg) was added to a 1 dram vial and 4.484 mL of 50 mM PBS (pH 6.0) was then added to obtain a 1 mM stock solution with no headspace in the vial. The solution was vortexed to mix and then incubated in the dark at rt for 20 min. Based on the H2S-release profile reported under the same conditions (see Kang, J. et al., J. Am. Chem. Soc. 2016, 138, 6336), 400 μM of H2S (40% of 1 mM) should be released. The pH of the solution was then adjusted to 7.4 by adding 16 μL 2N NaOH. The same volume of 50 mM PBS (pH 6.0) buffer was added to an empty 1 dram vial and 16 μL of 2N NaOH was added to adjust the pH of the buffer similarly for the controls. After incubation, 500 μL of the pH-adjusted PBS was aliquoted to nine 1.5 mL Eppendorf tubes while the same volume of JK-1 solution was aliquoted into six 1.5 mL Eppendorf tubes. […] 200 μL of each tube was then added to separate wells on a 96-well black flat clear-bottomed plate before being measured on a Molecular Devices SpectraMax iD3 Multi-Mode Microplate Reader (emission 535 nm; excitation 485 nm; integration time […], low PMT sensitivity, attenuation 1, read height 3.00 mm).
JK-1 in buffer was mixed with TTS to generate H2S2. After a 30 min incubation, the formation of H2S2 was measured by SSP4.

SMILES: COC(=O)c1ccc(=S=O)sc1 [TTS, 2H-thiopyran-2-thione sulfine]
- second-order rate constant k2 of the reaction between TTS and H2S [1]: 2.7
- SSP4 fluorescence (H2S2 formation) [2]: strong fluorescence

— US20260265055A1, “Sulfine-Based Compounds for Generating Hydrogen Persulfide” (Brown University, priority 2023, published 2026)
